These results are taken from ChEMBL document CHEMBL3758129, “Design, synthesis and anti-HIV evaluation of novel diarylpyridine derivatives targeting the entrance channel of NNRTI binding pocket” (Eur J Med Chem, 2016).

Data set [1] concerns Human immunodeficiency virus 1. As to the kind of experiment: Antiviral activity against HIV1 […] expressing reverse transcriptase F227L/V106A double mutant infected in human MT4 cells assessed as reduction of virus-induced cytopathic effect after 5 days by MTT assay. The data set is classed as functional, organism-based. Particulars: Human immunodeficiency virus 1, MT4, 120 h.

Data set [2] in a line: Selectivity index, ratio of CC50 for human MT4 cells to EC50 for wild type HIV1 3B infected in human MT4 cells. It counts as toxicity, cell-based. Particulars: read-out: Ratio CC50/EC50.
For data set [3], the system named is Human immunodeficiency virus 1. In words: Antiviral activity against HIV1 3B expressing reverse transcriptase E138K mutant infected in human MT4 cells assessed as reduction of virus-induced cytopathic effect after 5 days by MTT assay. The data set is classed as functional, organism-based. The conditions noted are these: Human immunodeficiency virus 1, 3B, MT4, 120 h. In general terms: Cytopathic effects are the visible damage that an infection or toxin causes in cultured cells.

Data set [4] in a line: Selectivity index, ratio of CC50 for human MT4 cells to EC50 for wild type HIV2 ROD infected in human MT4 cells. The data set is classed as toxicity, cell-based. The conditions noted are these: read-out: Ratio CC50/EC50.
The test system of data set [5] is Human immunodeficiency virus 1. As to the kind of experiment: Antiviral activity against HIV1 3B expressing reverse transcriptase K103N mutant infected in human MT4 cells assessed as reduction of virus-induced cytopathic effect after 5 days by MTT assay. It counts as functional, organism-based. The conditions noted are these: Human immunodeficiency virus 1, 3B, MT4, 120 h.

Data set [6] deals with Human immunodeficiency virus 1. As to the kind of experiment: Antiviral activity against HIV1 3B expressing reverse transcriptase Y181C mutant infected in human MT4 cells assessed as reduction of virus-induced cytopathic effect after 5 days by MTT assay. The data set is classed as functional, organism-based. Particulars: Human immunodeficiency virus 1, 3B, MT4, 120 h.
Data set [7] deals with Human immunodeficiency virus 1. In words: Antiviral activity against wild type HIV1 3B infected in human MT4 cells assessed as reduction of virus-induced cytopathic effect after 5 days by MTT assay. The data set is classed as functional, organism-based. Particulars: Human immunodeficiency virus 1, 3B, MT4, 120 h.
In data set [8] the test system is Human immunodeficiency virus 2. As to the kind of experiment: Antiviral activity against wild type HIV2 ROD infected in human MT4 cells assessed as reduction of virus-induced cytopathic effect after 5 days by MTT assay. The data set is classed as functional, organism-based. Particulars: Human immunodeficiency virus 2, ISOLATE ROD, MT4, 120 h.
Data set [9] concerns Human immunodeficiency virus 1. In words: Antiviral activity against HIV1 3B expressing reverse transcriptase L100I mutant infected in human MT4 cells assessed as reduction of virus-induced cytopathic effect after 5 days by MTT assay. It counts as functional, organism-based. The conditions noted are these: Human immunodeficiency virus 1, 3B, MT4, 120 h.
Data set [10] can be described thus: Cytotoxicity against human MT4 cells assessed as reduction in viability of mock infected cells after 5 days MTT assay. The data set is classed as cell-based. (Tetrazolium dyes change colour on reduction, which living cells bring about.)
Data set [11] relates to Human immunodeficiency virus 1. In words: Antiviral activity against HIV1 RES056 infected in human MT4 cells assessed as reduction of virus-induced cytopathic effect after 5 days by MTT assay. The conditions noted are these: Human immunodeficiency virus 1, RES056, MT4, 120 h. It counts as functional, organism-based.
Data set [12] concerns Human immunodeficiency virus 1. As to the kind of experiment: Antiviral activity against HIV1 3B expressing reverse transcriptase Y188L mutant infected in human MT4 cells assessed as reduction of virus-induced cytopathic effect after 5 days by MTT assay. It counts as functional, organism-based. Particulars: Human immunodeficiency virus 1, 3B, MT4, 120 h.
The subject of data set [13] is Human immunodeficiency virus 1. As to the kind of experiment: Potency index, ratio of efavirenz EC50 to compound EC50 for antiviral activity against HIV1 3B expressing reverse transcriptase K103N mutant infected in human MT4 cells. The data set is classed as functional.
Data set [14] concerns Human immunodeficiency virus 1. As to the kind of experiment: Potency index, ratio of delavirdine EC50 to compound EC50 for antiviral activity against HIV1 3B expressing reverse transcriptase K103N mutant infected in human MT4 cells. The data set is classed as functional.
Data set [15] deals with Human immunodeficiency virus 1. As to the kind of experiment: Potency index, ratio of nevirapine EC50 to compound EC50 for antiviral activity against HIV1 3B expressing reverse transcriptase K103N mutant infected in human MT4 cells. The data set is classed as functional.
Data set [16] has as its target Human immunodeficiency virus type 1 reverse transcriptase (Human immunodeficiency virus 1, UniProt Q72547). In words: Inhibition of HIV1 reverse transcriptase assessed as reduction in biotin-dUTP incorporation using poly(rA)-oligo(dT) as template/primer and digoxigenin-dUTP/biotin-dUTP/dTTP nucleotides incubated for 1 hr by ELISA.

A word on the EC50: it is the concentration needed to bring the measured effect to its halfway point. The CC50 is the concentration giving 50% cytotoxicity. For `Cc1cc(C)c(Oc2cc(NCCN3CCOCC3)nc(Nc3ccc(C#N)cc3)c2)c(C)c1`, the EC50 in data set [1] is 4520 nM; in data set [3], 4590 nM; in [5], 140 nM; in [6], 4930 nM; in data set [7], 72 nM; in [8], greater than 11100 nM. For the same molecule, the EC50 stood at 5800 nM in data set [9], 8310 nM in data set [11] and 9450 nM in data set [12]. Moreover, the selectivity ratio in [2] is 339; in data set [4], less than 1. For the same molecule, the half-maximal cytotoxic concentration (CC50) at 120 h in data set [10] was found to be 24300 nM.
As for `Cc1cc(C#N)cc(C)c1Oc1cc(NCCC#N)nc(Nc2ccc(C#N)cc2)c1`, the EC50 in data set [1] was greater than 7850 nM; in data set [3], 940 nM; in data set [5], 180 nM; in [6], greater than 7850 nM; in data set [7], 100 nM; in data set [8], greater than 3210 nM. The EC50 was 1340 nM in data set [9], 11100 nM in data set [11] and greater than 7850 nM in [12]. For the same molecule, the selectivity ratio in [2] was 75; in data set [4], less than 1. Further, in data set [10], the CC50 at 120 h is 7850 nM.
In the case of `Cc1cc(C#N)cc(C)c1Oc1cc(NCCN2CCOCC2)nc(Nc2ccc(C#N)cc2)c1`, the 50% effective concentration (EC50) in data set [1] is 6040 nM; in [3] it was 6410 nM; in [5] it was 49 nM; in data set [6], 7550 nM; in data set [7] it was 82 nM; in [8], greater than 17400 nM. Besides, the EC50 in [9] came out at 8460 nM; in data set [11] it was 4720 nM; in data set [12], 8100 nM. Further, the “Ratio EC50” value is listed as 3 in data set [13], 50 in [14] and 140 in [15]. In addition, the selectivity ratio in [2] was 451; in data set [4], less than 1. The 50% cytotoxic concentration (CC50) at 120 h in data set [10] worked out at 37200 nM.
`COC(CNc1cc(Oc2c(C)cc(C#N)cc2C)cc(Nc2ccc(C#N)cc2)n1)OC`: the selectivity ratio was greater than 335 in data set [2] and less than 1 in [4]. In addition, the EC50 in data set [7] is 840 nM; in data set [8], greater than 125000 nM. In addition, the half-maximal cytotoxic concentration (CC50) at 120 h in [10] was greater than 282000 nM.
As for `Cc1cc(C#N)cc(C)c1Oc1cc(NCCN2CCNCC2)nc(Nc2ccc(C#N)cc2)c1`, the figures for the selectivity ratio in [2] and in data set [4] were 10 and less than 1, respectively. Also, the values for the concentration giving a half-maximal response (EC50) in data set [7] and in data set [8] were 430 nM and greater than 2070 nM, respectively. The CC50 at 120 h in data set [10] came to 4430 nM.
In the same order, the values of `Cc1cc(C#N)cc(C)c1Oc1cc(Cl)nc(Nc2ccc(C#N)cc2)c1` are 27, less than 1, 840 nM, greater than 8550 nM and 22900 nM.
As usually defined, the IC50 is the concentration that gives 50% inhibition. For `Cc1cc(C#N)cc(C)c1Oc1cc(NCCN(C)C)nc(Nc2ccc(C#N)cc2)c1`, the selectivity ratio in data set [2] was 114; in data set [4] it was less than 1. The 50% inhibitory concentration (IC50) in data set [16] worked out at 3400 nM. Moreover, the EC50 was 41 nM in [7] and greater than 1990 nM in data set [8]. Besides, the CC50 at 120 h in data set [10] turned out to be 4670 nM.
As to `Cc1cc(C)c(Oc2cc(Cl)nc(Nc3ccc(C#N)cc3)c2)c(C)c1`, the results for the selectivity ratio in data set [2] and in [4] were 15 and less than 1, respectively. The EC50 in data set [7] is 370 nM; in data set [8], greater than 2030 nM. The CC50 at 120 h in data set [10] turned out to be 5590 nM.
Consider `CC(C)Nc1cccnc1N1CCN(C(=O)c2cc3cc(NS(C)(=O)=O)ccc3[nH]2)CC1` [DELAVIRDINE], for which the EC50 in [1] amounted to 1870 nM; in [3], 43 nM; in [5] it was 2480 nM; in [6], 2030 nM; in data set [7] it was 33 nM; in data set [9], 2100 nM. Also, the 50% effective concentration (EC50) in data set [12] came to 690 nM. Moreover, the selectivity ratio in data set [2] came out at 30.4; in data set [4], 733.
Take `O=C1Nc2ccc(Cl)cc2[C@@](C#CC2CC2)(C(F)(F)F)O1` [EFAVIRENZ]: the concentration giving a half-maximal response (EC50) in data set [1] turned out to be 210 nM; in data set [6] it was 6.8 nM; in data set [9], 100 nM; in data set [12] it was 340 nM.
On to `Cc1cc(C#N)cc(C)c1Oc1nc(Nc2ccc(C#N)cc2)nc(N)c1Br` [ETRAVIRINE], for which the EC50 is 3.2 nM in data set [5], 3.5 nM in data set [7], 6.6 nM in [9] and 22 nM in [12].
As for `Cc1ccnc2c1NC(=O)c1cccnc1N2C1CC1` [NEVIRAPINE], the concentration for a half-maximal effect (EC50) amounted to 260 nM in [7], 830 nM in data set [9] and 9610 nM in [12].
Turning to `Cc1cn([C@H]2C[C@H](N=[N+]=[N-])[C@@H](CO)O2)c(=O)[nH]c1=O` [ZIDOVUDINE], the EC50 in data set [1] was 4.8 nM; in [3], 13 nM; in [5], 8.3 nM; in data set [6], 7.1 nM; in data set [7], 6.7 nM; in data set [9] it was 5.2 nM. Besides, the concentration for a half-maximal effect (EC50) in [12] was 11 nM. Moreover, the selectivity ratio in [2] is greater than 7.06; in [4], greater than 1050.
